In ChEMBL document CHEMBL1949655, “Neomycin-phenolic conjugates: polycationic amphiphiles with broad-spectrum antibacterial activity, low hemolytic activity and weak serum protein binding” (Bioorg Med Chem Lett, 2012):
Values after ≈ are worked out from the molar mass of the structure shown.

What was measured:
Pseudomonas aeruginosa [1] = experiment: microbe, parasite or virus in culture; type: functional; conditions: ATCC 27853, 24 h
Description: Antibacterial activity against Pseudomonas aeruginosa ATCC 27853 after 24 hrs by macrobroth dilution method in the presence of bovine serum albumin

Escherichia coli [2] = experiment: microbe, parasite or virus in culture; type: functional; conditions: ATCC 25922, 24 h
Description: Antibacterial activity against Escherichia coli ATCC 25922 after 24 hrs by macrobroth dilution method in the presence of bovine serum albumin

Streptococcus pneumoniae [3] = experiment: microbe, parasite or virus in culture; type: functional; conditions: ATCC 49619, 24 h
Description: Antibacterial activity against Streptococcus pneumoniae ATCC 49619 after 24 hrs by macrobroth dilution method

Klebsiella pneumoniae [4] = experiment: microbe, parasite or virus in culture; type: functional; conditions: ATCC 13883, 24 h
Description: Antibacterial activity against Klebsiella pneumoniae ATCC 13883 after 24 hrs by macrobroth dilution method in the presence of bovine serum albumin

[5] = system: Stenotrophomonas maltophilia; experiment: microbe, parasite or virus in culture; type: functional; conditions: isolate CAN-ICU 62584, 24 h
Description: Antibacterial activity against Stenotrophomonas maltophilia isolate CAN-ICU 62584 after 24 hrs by macrobroth dilution method in the presence of bovine serum albumin

Staphylococcus aureus [6] = experiment: microbe, parasite or virus in culture; type: functional; conditions: ATCC 29213, 24 h
Description: Antibacterial activity against Staphylococcus aureus ATCC 29213 after 24 hrs by macrobroth dilution method

Staphylococcus aureus [7] = experiment: microbe, parasite or virus in culture; type: functional; conditions: ATCC 33592, 24 h
Description: Antibacterial activity against methicillin-resistant Staphylococcus aureus ATCC 33592 after 24 hrs by macrobroth dilution method

Escherichia coli [8] = experiment: microbe, parasite or virus in culture; type: functional; conditions: isolate CAN-ICU 61714, 24 h
Description: Antibacterial activity against Escherichia coli isolate CAN-ICU 61714 after 24 hrs by macrobroth dilution method in the presence of bovine serum albumin

Escherichia coli [9] = experiment: microbe, parasite or virus in culture; type: functional; conditions: isolate CAN-ICU 61714, 24 h; remark: listed apart in the source
Description: Antibacterial activity against Escherichia coli isolate CAN-ICU 61714 after 24 hrs by macrobroth dilution method

Escherichia coli [10] = experiment: microbe, parasite or virus in culture; type: functional; conditions: isolate CAN-ICU 63074, 24 h
Description: Antibacterial activity against Escherichia coli isolate CAN-ICU 63074 after 24 hrs by macrobroth dilution method in the presence of bovine serum albumin

Enterococcus faecium [11] = experiment: microbe, parasite or virus in culture; type: functional; conditions: ATCC 27270, 24 h
Description: Antibacterial activity against Enterococcus faecium ATCC 27270 after 24 hrs by macrobroth dilution method in the presence of bovine serum albumin

Staphylococcus aureus [12] = experiment: microbe, parasite or virus in culture; type: functional; conditions: ATCC 33592, 24 h; remark: listed apart in the source
Description: Antibacterial activity against methicillin-resistant Staphylococcus aureus ATCC 33592 after 24 hrs by macrobroth dilution method in the presence of bovine serum albumin

Enterococcus faecalis [13] = experiment: microbe, parasite or virus in culture; type: functional; conditions: ATCC 29212, 24 h
Description: Antibacterial activity against Enterococcus faecalis ATCC 29212 after 24 hrs by macrobroth dilution method in the presence of bovine serum albumin

[14] = system: Staphylococcus epidermidis; experiment: microbe, parasite or virus in culture; type: functional; conditions: Staphylococcus epidermidis, 81388, 24 h
Description: Antibacterial activity against methicillin-susceptible Staphylococcus epidermidis 81388 after 24 hrs by macrobroth dilution method in the presence of bovine serum albumin

[15] = system: Stenotrophomonas maltophilia; experiment: microbe, parasite or virus in culture; type: functional; conditions: isolate CAN-ICU 62584, 24 h; remark: listed apart in the source
Description: Antibacterial activity against Stenotrophomonas maltophilia isolate CAN-ICU 62584 after 24 hrs by macrobroth dilution method

Pseudomonas aeruginosa [16] = experiment: microbe, parasite or virus in culture; type: functional; conditions: isolate CAN-ICU 62308, 24 h
Description: Antibacterial activity against Pseudomonas aeruginosa isolate CAN-ICU 62308 after 24 hrs by macrobroth dilution method in the presence of bovine serum albumin

Acinetobacter baumannii [17] = experiment: microbe, parasite or virus in culture; type: functional; conditions: isolate CAN-ICU 63169, 24 h
Description: Antibacterial activity against Acinetobacter baumannii isolate CAN-ICU 63169 after 24 hrs by macrobroth dilution method in the presence of bovine serum albumin

[18] = system: Staphylococcus epidermidis; experiment: microbe, parasite or virus in culture; type: functional, isolate CAN-ICU 61589; conditions: isolate CAN-ICU61589, 24 h
Description: Antibacterial activity against methicillin-resistant Staphylococcus epidermidis isolate CAN-ICU 61589 after 24 hrs by macrobroth dilution method in the presence of bovine serum albumin

Klebsiella pneumoniae [19] = experiment: microbe, parasite or virus in culture; type: functional; conditions: ATCC 13883, 24 h; remark: listed apart in the source
Description: Antibacterial activity against Klebsiella pneumoniae ATCC 13883 after 24 hrs by macrobroth dilution method

Enterococcus faecium [20] = experiment: microbe, parasite or virus in culture; type: functional; conditions: ATCC 27270, 24 h; remark: listed apart in the source
Description: Antibacterial activity against Enterococcus faecium ATCC 27270 after 24 hrs by macrobroth dilution method

Escherichia coli [21] = experiment: microbe, parasite or virus in culture; type: functional; conditions: ATCC 25922, 24 h; remark: listed apart in the source
Description: Antibacterial activity against Escherichia coli ATCC 25922 after 24 hrs by macrobroth dilution method

Pseudomonas aeruginosa [22] = experiment: microbe, parasite or virus in culture; type: functional; conditions: ATCC 27853, 24 h; remark: listed apart in the source
Description: Antibacterial activity against Pseudomonas aeruginosa ATCC 27853 after 24 hrs by macrobroth dilution method

Enterococcus faecalis [23] = experiment: microbe, parasite or virus in culture; type: functional; conditions: ATCC 29212, 24 h; remark: listed apart in the source
Description: Antibacterial activity against Enterococcus faecalis ATCC 29212 after 24 hrs by macrobroth dilution method

Pseudomonas aeruginosa [24] = experiment: microbe, parasite or virus in culture; type: functional; conditions: isolate CAN-ICU 62308, 24 h; remark: listed apart in the source
Description: Antibacterial activity against Pseudomonas aeruginosa isolate CAN-ICU 62308 after 24 hrs by macrobroth dilution method

Acinetobacter baumannii [25] = experiment: microbe, parasite or virus in culture; type: functional; conditions: isolate CAN-ICU 63169, 24 h; remark: listed apart in the source
Description: Antibacterial activity against Acinetobacter baumannii 63169 isolate CAN-ICU after 24 hrs by macrobroth dilution method

Escherichia coli [26] = experiment: microbe, parasite or virus in culture; type: functional; conditions: isolate CAN-ICU 63074, 24 h; remark: listed apart in the source
Description: Antibacterial activity against Escherichia coli isolate CAN-ICU 63074 after 24 hrs by macrobroth dilution method

[27] = system: Staphylococcus epidermidis; experiment: microbe, parasite or virus in culture; type: functional; conditions: isolate CAN-ICU61589, 24 h
Description: Antibacterial activity against methicillin-resistant Staphylococcus epidermidis isolate CAN-ICU 61589 after 24 hrs by macrobroth dilution method

[28] = system: Staphylococcus epidermidis; experiment: microbe, parasite or virus in culture; type: functional; conditions: Staphylococcus epidermidis, 81388, 24 h; remark: listed apart in the source
Description: Antibacterial activity against methicillin-susceptible Staphylococcus epidermidis 81388 after 24 hrs by macrobroth dilution method

Staphylococcus aureus [29] = experiment: microbe, parasite or virus in culture; type: functional; conditions: ATCC 29213, 24 h; remark: listed apart in the source
Description: Antibacterial activity against Staphylococcus aureus ATCC 29213 after 24 hrs by macrobroth dilution method in the presence of bovine serum albumin

Streptococcus pneumoniae [30] = experiment: microbe, parasite or virus in culture; type: functional; conditions: ATCC 49619, 24 h; remark: listed apart in the source
Description: Antibacterial activity against Streptococcus pneumoniae ATCC 49619 after 24 hrs by macrobroth dilution method in the presence of bovine serum albumin

[31] = Aqueous solubility of the compound; type: physicochemical; conditions: buffer
[32] = Toxicity in human erythrocytes assessed as hemolysis at 100 ug/ml by spectrophotometry; conditions: at 100 µg/mL

SMILES	MIC90 (Pseudomonas aeruginosa [1])	MIC90 (Escherichia coli [2])	MIC90 (Streptococcus pneumoniae [3])	MIC90 (Klebsiella pneumoniae [4])	MIC90 [5]	MIC90 (Staphylococcus aureus [6])	MIC90 (Staphylococcus aureus [7])	MIC90 (Escherichia coli [8])	MIC90 (Escherichia coli [9])	MIC90 (Escherichia coli [10])	MIC90 (Enterococcus faecium [11])	MIC90 (Staphylococcus aureus [12])	MIC90 (Enterococcus faecalis [13])	MIC90 [14]	MIC90 [15]	MIC90 (Pseudomonas aeruginosa [16])	MIC90 (Acinetobacter baumannii [17])	MIC90 [18]	MIC90 (Klebsiella pneumoniae [19])	MIC90 (Enterococcus faecium [20])	other results
Cc1cc(O)cc(C)c1Cl [CHLOROXYLENOL]	> 512 µg/mL	> 512 µg/mL	128 µg/mL (≈ 817 µM)	> 512 µg/mL	> 512 µg/mL	32 µg/mL (≈ 204 µM)	64 µg/mL (≈ 409 µM)	> 512 µg/mL	256 µg/mL (≈ 1630 µM)	> 512 µg/mL	> 512 µg/mL	512 µg/mL (≈ 3270 µM)	> 512 µg/mL	512 µg/mL (≈ 3270 µM)	128 µg/mL (≈ 817 µM)	> 512 µg/mL	> 512 µg/mL	512 µg/mL (≈ 3270 µM)	256 µg/mL (≈ 1630 µM)	256 µg/mL (≈ 1630 µM)	MIC90 (Escherichia coli [21]): 256 µg/mL (≈ 1630 µM); MIC90 (Pseudomonas aeruginosa [22]): 512 µg/mL (≈ 3270 µM); MIC90 (Enterococcus faecalis [23]): 256 µg/mL (≈ 1630 µM); MIC90 (Pseudomonas aeruginosa [24]): 256 µg/mL (≈ 1630 µM); MIC90 (Acinetobacter baumannii [25]): 128 µg/mL (≈ 817 µM); MIC90 (Escherichia coli [26]): 256 µg/mL (≈ 1630 µM); MIC90 [27]: 16 µg/mL (≈ 102 µM); MIC90 [28]: 32 µg/mL (≈ 204 µM); MIC90 (Staphylococcus aureus [29]): 512 µg/mL (≈ 3270 µM); MIC90 (Streptococcus pneumoniae [30]): > 512 µg/mL
CC(C)(C)CC(C)(C)c1ccc(O)c(Cc2ccc(Cl)cc2Cl)c1 [CLOFOCTOL]	–	–	–	–	–	–	–	–	–	–	–	–	–	–	–	–	–	–	–	–	solubility [31]: Insoluble
NC[C@@H]1O[C@H](O[C@H]2[C@@H](O)[C@H](O[C@@H]3[C@@H](O)[C@H](N)C[C@H](N)[C@H]3O[C@H]3O[C@H](CN)[C@@H](O)[C@H](O)[C@H]3N)O[C@@H]2CO)[C@H](N)[C@@H](O)[C@@H]1O.O.O=S(=O)(O)O [NEOMYCIN TRISULFATE HYDRATE]	256 µg/mL	0.25 µg/mL	32 µg/mL	≤ 0.25 µg/mL	> 512 µg/mL	1 µg/mL	256 µg/mL	1 µg/mL	1 µg/mL	16 µg/mL	4 µg/mL	128 µg/mL	16 µg/mL	0.5 µg/mL	> 512 µg/mL	256 µg/mL	32 µg/mL	≤ 0.25 µg/mL	0.25 µg/mL	4 µg/mL	hemolysis at 100 ug/ml [32]: 0.69%; MIC90 (Escherichia coli [21]): 4 µg/mL; MIC90 (Pseudomonas aeruginosa [22]): 512 µg/mL; MIC90 (Enterococcus faecalis [23]): 16 µg/mL; MIC90 (Pseudomonas aeruginosa [24]): 256 µg/mL; MIC90 (Acinetobacter baumannii [25]): 64 µg/mL; MIC90 (Escherichia coli [26]): 8 µg/mL; MIC90 [27]: ≤ 0.25 µg/mL; MIC90 [28]: 0.5 µg/mL; MIC90 (Staphylococcus aureus [29]): 0.5 µg/mL; MIC90 (Streptococcus pneumoniae [30]): 8 µg/mL
Oc1cc(Cl)ccc1Oc1ccc(Cl)cc1Cl [TRICLOSAN]	> 512 µg/mL	16 µg/mL (≈ 55.3 µM)	128 µg/mL (≈ 442 µM)	32 µg/mL (≈ 111 µM)	> 512 µg/mL	0.5 µg/mL (≈ 1.73 µM)	≤ 0.25 µg/mL	16 µg/mL (≈ 55.3 µM)	1 µg/mL (≈ 3.45 µM)	64 µg/mL (≈ 221 µM)	512 µg/mL (≈ 1770 µM)	1 µg/mL (≈ 3.45 µM)	512 µg/mL (≈ 1770 µM)	1 µg/mL (≈ 3.45 µM)	512 µg/mL (≈ 1770 µM)	> 512 µg/mL	128 µg/mL (≈ 442 µM)	1 µg/mL (≈ 3.45 µM)	1 µg/mL (≈ 3.45 µM)	16 µg/mL (≈ 55.3 µM)	MIC90 (Escherichia coli [21]): ≤ 0.25 µg/mL; MIC90 (Pseudomonas aeruginosa [22]): > 512 µg/mL; MIC90 (Enterococcus faecalis [23]): 8 µg/mL (≈ 27.6 µM); MIC90 (Pseudomonas aeruginosa [24]): 64 µg/mL (≈ 221 µM); MIC90 (Acinetobacter baumannii [25]): 8 µg/mL (≈ 27.6 µM); MIC90 (Escherichia coli [26]): 1 µg/mL (≈ 3.45 µM); MIC90 [27]: ≤ 0.25 µg/mL; MIC90 [28]: 1 µg/mL (≈ 3.45 µM); MIC90 (Staphylococcus aureus [29]): 0.5 µg/mL (≈ 1.73 µM); MIC90 (Streptococcus pneumoniae [30]): 256 µg/mL (≈ 884 µM)
